According to patent US8183264B2, “Pyridine derivative substituted by heteroaryl ring, and antifungal agent comprising the same” (Eisai R&D Managment Co., Ltd., priority 2006, dated 2012):
In brackets after ≈: the same amount, converted by molar mass.

How the values were obtained:
[1] = tested on: C. albicans E81022 strain; assay: Experimental systemic candidal infection model in mice; format: in vivo; conditions: peroral, 3 times every 4 hours, female ICR mice infected iv with C. albicans E81022, observed until 14 days after infection
Method: 2. Experimental Systemic Candidal Infection Model in Mice (1) Preparation of Fungal Inoculant
A standing culture of C. albicans E81022 strain was carried out for 48 hours at 30° C. in Sabouraud dextrose agar medium (SDA), and the recovered fungal cells were suspended in sterilized physiological saline. By counting the fungal number on cytometry plate, the suspension was diluted to 2×10^7 cells/mL with sterilized physiological saline to serve fungal inoculum.
The fungal inoculum was used in amounts of 0.2 mL to inoculate 4.5 to 5.5 week-old female ICR mice in the tail vein (4×10^6 cells/mouse).
From 0.5 to 1 hour after fungal inoculation, 0.2 mL of agent solution (dissolved or suspended in sterilized physiological saline containing 6.5% dimethyl sulfoxide and 3.5% Tween 80) was administered into the stomach using a peroral probe, 3 times every 4 hours. The agent concentration was 2.5 or 10 mg/kg, and the number of animal in one group was five animals.
(4) Determination of Effects
The protective effect was determined by observing life/death until 14 days after infection and calculating the mean survival days.

[2] = tested on: A. fumigatus Tsukuba strain; assay: Anti-Aspergillus activity (MIC measurement); format: cell-based; conditions: minimum inhibitory concentration (MIC) by visual inspection, RPMI 1640, 42 to 48 hours at 35° C.
Method: (§1) 1. Anti-Candida Activity and Anti-Aspergillus Activity
(§2) (1) Preparation of Fungal Sample
(§3) For the C. albicans CAF2-1 strain, a fungal suspension from a standing culture for 48 hours at 30° C. in a Sabouraud dextrose liquid culture medium (SDB) was diluted with RPMI 1640 medium to adjust a fungal suspension of 1.2×10^3 cells/mL. For the A. fumigatus Tsukuba strain, −80° C. stored strain was diluted with RPMI 1640 medium to adjust to a fungal suspension of 4.5×10^3 cells/mL.
(§4) (2) Preparation of an Agent Dilution Plate
(§5) Using a U-bottomed 96-well plate, 8 samples/plate (A to H) of sample dilution solutions were prepared. On the 2nd to 12th rows were dispensed 10 μL of dimethyl sulfoxide solution. Weighed sample was dissolved in dimethyl sulfoxide to prepare a 2.5 mg/mL solution, 20 μL of this solution was added to the first row of the prepared plate, and 12 steps of two-fold step dilutions (10 μL of solution+10 μL of dimethyl sulfoxide solution) were performed on the plate. This sample dilution solution was dispensed in an amount of 1 μL into a flat-bottomed 96-well plate for MIC measurement to prepare a sample dilution plate.
(§6) (3) Inoculation of Fungal Suspension and Culture
(§7) The fungal suspension prepared in (1) was used in an amount of 99 μL/well to inoculate the flat-bottomed 96-well plate containing 1 μL/well of the test compound dilution prepared in (2), and standing culture was performed aerobically for 42 to 48 hours at 35° C.
(§8) The following representative compounds prepared in the examples were measured for anti-Candida activity and anti-Aspergillus activity by measurement method in (1).

[3] = tested on: C. albicans CAF2-1 strain; assay: Anti-Candida activity (MIC measurement); format: cell-based; conditions: CAF21STRAIN, minimum inhibitory concentration (MIC) by visual inspection, RPMI 1640, 42 to 48 hours at 35° C.
Method: as §1, §2, §3, §4, §5, §6, §7, §8

Row | Structure (SMILES) | Mean Survival Day (MSD) ([1]; Dose 2.5 mg/kg) | Mean Survival Day (MSD) ([1]; Dose 10 mg/kg) | MIC [2] | MIC [3]
1 | CCCCOCc1ccc(Cn2cc(-c3ccc(COC)nc3N)nn2)cc1 [Example 41, 3-[1-(4-Butoxymethyl-benzyl)-1H-[1,2,3]triazol-4-yl]-6-methoxymethyl-pyridin-2-ylamine] | 6.2 days | 11.2 days | 1.56 µg/mL (≈ 4.09 µM) | 0.39 µg/mL (≈ 1.02 µM)
2 | Cc1ccc(Cc2ccc(Cn3nnc(-c4cccnc4N)n3)cc2)o1 [Example 53, 3-(2-(4-(5-Methyl-furan-2-ylmethyl)-benzyl)-2H-tetrazol-5-yl)-pyridin-2-ylamine] | 7.6 days | 13.8 days | 0.78 µg/mL (≈ 2.25 µM) | 0.39 µg/mL (≈ 1.13 µM)
3 | CCCCOCc1ccc(Cn2cc(-c3ccc(N)nc3N)nn2)cc1 [Example 42, 3-(1-(4-Butoxymethyl-benzyl)-1H-[1,2,3]triazol-4-yl)-pyridin-2,6-diamine] | – | 13.6 days | 0.78 µg/mL (≈ 2.21 µM) | 0.2 µg/mL (≈ 0.567 µM)
4 | Nc1ncccc1-c1nnn(Cc2ccc(OCc3ccccc3)cc2)n1 [Example 5, 3-(2-(4-Benzyloxy-benzyl)-2H-tetrazol-5-yl)-pyridin-2-ylamine] | – | 11.8 days | 1.56 µg/mL (≈ 4.35 µM) | 0.78 µg/mL (≈ 2.18 µM)
5 | Nc1ccc(-c2nnn(Cc3ccc(OCc4ccccn4)cc3)n2)c(N)n1 [Example 27, 3-(2-(4-(Pyridin-2-ylmethoxy)-benzyl)-2H-tetrazol-5-yl)-pyridin-2,6-diamine] | 5.6 days | 12 days | 0.78 µg/mL (≈ 2.08 µM) | 0.2 µg/mL (≈ 0.534 µM)
6 | Nc1ncccc1-c1nnc(Cc2ccc(OCc3ccccc3)cc2)o1 [Example 9] | 7.8 days | 10.8 days | 0.78 µg/mL (≈ 2.18 µM) | 0.39 µg/mL (≈ 1.09 µM)
